Tests used:
Settings in all cases: 72 h
U2OS [1] = test: cell viability relative to DMSO; higher = less toxic
Caco-2 [2] = test: as above
HepG2 [3] = test: as above
Calu-3 [4] = test: as above
Vero E6 [5] = test: as above
U2OS [6] = test: drug sensitivity score (DSS) for viability; higher = more toxic; extreme values may be limits of the assay
Caco-2 [7] = test: as above
HepG2 [8] = test: as above
Calu-3 [9] = test: as above
Vero E6 [10] = test: as above
U2OS [11] = test: relative viability EC50 (midpoint between 100% and the lowest measured viability); higher = less toxic
Caco-2 [12] = test: as above
HepG2 [13] = test: as above
Calu-3 [14] = test: as above
Vero E6 [15] = test: as above

Structure (SMILES) | cell viability (U2OS [1]; 1 nM) | cell viability (U2OS [1]; 10 nM) | cell viability (U2OS [1]; 100 nM) | cell viability (U2OS [1]; 1000 nM) | cell viability (U2OS [1]; 10000 nM) | cell viability (Caco-2 [2]; 1 nM) | cell viability (Caco-2 [2]; 10 nM) | cell viability (Caco-2 [2]; 100 nM) | cell viability (Caco-2 [2]; 1000 nM) | cell viability (Caco-2 [2]; 10000 nM) | cell viability (HepG2 [3]; 1 nM) | cell viability (HepG2 [3]; 10 nM) | cell viability (HepG2 [3]; 100 nM) | cell viability (HepG2 [3]; 1000 nM) | cell viability (HepG2 [3]; 10000 nM) | cell viability (Calu-3 [4]; 1 nM) | cell viability (Calu-3 [4]; 10 nM) | cell viability (Calu-3 [4]; 100 nM) | cell viability (Calu-3 [4]; 1000 nM) | cell viability (Calu-3 [4]; 10000 nM) | cell viability (Vero E6 [5]; 1 nM) | cell viability (Vero E6 [5]; 10 nM) | cell viability (Vero E6 [5]; 100 nM) | cell viability (Vero E6 [5]; 1000 nM) | cell viability (Vero E6 [5]; 10000 nM) | drug sensitivity score (U2OS [6]) | drug sensitivity score (Caco-2 [7]) | drug sensitivity score (HepG2 [8]) | drug sensitivity score (Calu-3 [9]) | drug sensitivity score (Vero E6 [10]) | relative viability EC50 (U2OS [11]) | relative viability EC50 (Caco-2 [12]) | relative viability EC50 (HepG2 [13]) | relative viability EC50 (Calu-3 [14]) | relative viability EC50 (Vero E6 [15])
CCC1NC(=O)c2cc(S(N)(=O)=O)c(Cl)cc2N1 (stereo not given) [quinethazone] | 91.9% | 100% | 93.3% | 101% | 105% | 94.3% | 108% | 96.4% | 97.4% | 82.9% | 110% | 103% | 103% | 92.6% | 93.1% | 101% | 94.8% | 97.5% | 91.2% | 95.1% | 106% | 86.7% | 103% | 100% | 98.6% | 0 | 0.7 | 0 | 0 | 0 | > 10 µM | > 10 µM | > 10 µM | > 10 µM | > 10 µM
Cc1ccc2c(c1)[C@]13CCCC[C@@H]1[C@H](C2)N(C)CC3 [dimemorfan] | 96.8% | 102% | 95.7% | 101% | 93.7% | 93.5% | 96.5% | 94.6% | 103% | 91.8% | 105% | 103% | 99% | 95.3% | 101% | 89.1% | 95.5% | 89.1% | 89.2% | 98.7% | 101% | 103% | 104% | 98.7% | 106% | 0 | 0 | 0 | 0 | 0 | > 10 µM | > 10 µM | > 10 µM | > 10 µM | > 10 µM
NC(=O)NCCC[C@H](N)C(=O)O [L-citrulline] | 98.7% | 102% | 95.5% | 105% | 95.6% | 99% | 104% | 92.3% | 101% | 92.4% | 100% | 95.2% | 92.7% | 91.4% | 94% | 101% | 92.2% | 98.6% | 96.9% | 110% | 98.6% | 96% | 97.2% | 97.8% | 102% | 0 | 0 | 0 | 0 | 0 | > 10 µM | > 10 µM | > 10 µM | > 10 µM | > 10 µM
CC(=O)N[C@H]1[C@@H](OC(C)C)O[C@H](COC(C)=O)[C@@H](OC(C)=O)[C@@H]1OC(C)=O [C34] | 102% | 106% | 96.9% | 103% | 96.3% | 106% | 109% | 91.8% | 101% | 98.5% | 95.3% | 102% | 102% | 102% | 110% | 112% | 96.1% | 103% | 95.5% | 101% | 96.2% | 96.2% | 97.1% | 96.6% | 95.5% | 0 | 0 | 0 | 0 | 0 | > 10 µM | > 10 µM | > 10 µM | > 10 µM | > 10 µM

Source: the supplement of paper PMC13380429
